# Reference: ChEMBL document CHEMBL5036330, “Discovery of 8,9-seco-ent-Kaurane Diterpenoids as Potential Leads for the Treatment of Triple-Negative Breast Cancer” (J Med Chem, 2021)
# Key:
# [1] = system: MDA-MB-231; assay: Cytotoxicity against human MDA-MB-231 cells assessed as reduction in cell viability incubated for 96 hrs by MTT method; assay type: functional, cell-based; conditions: MDA-MB-231, 96 h
# [2] = system: MDA-MB-468; assay: Cytotoxicity against human MDA-MB-468 cells assessed as reduction in cell viability incubated for 96 hrs by MTT method; assay type: functional, cell-based; conditions: MDA-MB-468, 96 h
# [3] = system: MCF7; assay: Cytotoxicity against human MCF7 cells assessed as reduction in cell viability incubated for 96 hrs by MTT method; assay type: functional, cell-based; conditions: MCF7, 96 h
# [4] = system: L02; assay: Cytotoxicity against human L02 cells assessed as reduction in cell viability incubated for 96 hrs by MTT method; assay type: cell-based; conditions: L02, 96 h
# [5] = system: MCF-10A; assay: Cytotoxicity against human MCF-10A cells assessed as reduction in cell viability incubated for 96 hrs by MTT method; assay type: cell-based
# [6] = system: HEK293; assay: Cytotoxicity against HEK-293 cells assessed as reduction in cell viability incubated for 96 hrs by MTT method; assay type: cell-based; conditions: Homo sapiens, HEK293, 96 h
SMILES,IC50 [1] [nM],IC50 [2] [nM],IC50 [3] [nM],IC50 [4] [nM],IC50 [5] [nM],IC50 [6] [nM]
CC1(C)C(=O)CC[C@]2(C)[C@@H]1CC[C@@]13C[C@@H](CC[C@H]12)[C@@H](CO)C3,> 5000,> 5000,> 5000,–,–,–
C=C1C(=O)C2=C[C@H]1CCC(=O)[C@]1(C)[C@H](O)CCC(C)(C)[C@H]1C[C@H]2OC,185,121,215,–,–,–
COc1cccc2c1C(=O)c1c(O)c3c(c(O)c1C2=O)C[C@@](O)(C(=O)CO)C[C@@H]3O[C@H]1C[C@H](N)[C@H](O)[C@H](C)O1 [DOXORUBICIN],80.5,52.1,–,256,33,106
C=C1C(=O)C2=C[C@H]1CCC(=O)[C@]1(C)[C@H](O)CCC(C)(C)[C@H]1C[C@H]2OC(=O)c1ccccc1,466,301,999,–,–,–
CC1(C)C(=O)CC[C@]2(C)[C@@H]1CC[C@@]13C[C@@H](CC[C@H]12)[C@@](O)(CO)C3,> 5000,> 5000,> 5000,–,–,–
C=C1C(=O)C2=C[C@H]1CCC(=O)[C@@]1(C)[C@H](C[C@H]2OCC)C(C)(C)CC[C@H]1OC(C)=O,677,236,266,–,–,–
C[C@H]1C(=O)[C@]23C[C@H]1CC[C@@]2(O)[C@]1(C)[C@H](O)CCC(C)(C)[C@H]1C[C@H]3O,> 5000,> 5000,> 5000,–,–,–
C=C1C(=O)C2=C[C@H]1CCC(=O)[C@]1(C)C(=O)CCC(C)(C)[C@H]1C[C@H]2OC(=O)c1ccccc1,2000,2070,882,–,–,–
C=CC(=O)O[C@@H]1C[C@@H]2C(C)(C)CC[C@@H](OC(=O)C=C)[C@@]2(C)C(=O)CC[C@@H]2C=C1C(=O)C2=C,237,395,1120,–,–,–
C=C1C(=O)C2=C[C@H]1CCC(=O)[C@@]1(C)[C@H](C[C@H]2OC(C)=O)C(C)(C)CC[C@H]1OC(C)=O,978,762,226,–,–,–
C[C@H]1C(=O)C2=C[C@H]1CCC(=O)[C@]1(C)[C@H](O)CCC(C)(C)[C@H]1C[C@H]2O,> 5000,> 5000,> 5000,–,–,–
C=C1C(=O)[C@]23O[C@H]2[C@H]1CCC(=O)[C@]1(C)[C@H](O)CCC(C)(C)[C@H]1C[C@H]3O,473,319,1600,–,–,–
CC1(C)C(=O)CC[C@]2(C)[C@@H]1CC[C@]13C[C@H]4C[C@H](O[C@@]4(C)C1)[C@H]32,> 5000,> 5000,> 5000,–,–,–
C=C1C(=O)C2=C[C@H]1CCC(=O)[C@]1(C)[C@H](O)CCC(C)(C)[C@H]1C[C@H]2OC(C)=O,561,257,587,–,–,–
C=C1C(=O)C2=C[C@H]1CCC(=O)[C@]1(C)C(=O)CCC(C)(C)[C@H]1C[C@H]2OC(C)=O,28.7,215,538,–,–,–
C=C1C(=O)C2=C[C@H]1CCC(=O)[C@]1(C)C(=O)CCC(C)(C)[C@H]1C[C@H]2OC(=O)CCl,1610,345,505,–,–,–
C=C1C(=O)C2=C[C@H]1CCC(=O)[C@]1(C)C(=O)CCC(C)(C)[C@H]1C[C@H]2O,124,194,379,–,–,–
C=C1C(=O)O[C@H]2C3=C(CC[C@@H]12)[C@@]1(C)[C@H](CC3=O)C(C)(C)CC[C@H]1OC(C)=O,1770,842,1240,–,–,–
C=C1C(=O)C2=C[C@H]1CCC(=O)[C@@]1(C)[C@H](C[C@H]2OC(=O)CCl)C(C)(C)CC[C@H]1OC(C)=O,1080,643,235,–,–,–
C=CC(=O)O[C@@H]1C[C@@H]2C(C)(C)CC[C@@H](O)[C@@]2(C)C(=O)CC[C@@H]2C=C1C(=O)C2=C,166,382,1220,–,–,–
C=C(C)CC(=O)O[C@@H]1C[C@@H]2C(C)(C)CC[C@@H](O)[C@@]2(C)C(=O)CC[C@@H]2C=C1C(=O)C2=C,564,890,1190,–,–,–
C=C1C(=O)C2=C[C@H]1CCC(=O)[C@@]1(C)[C@H](C[C@H]2O)C(C)(C)CC[C@H]1OC(C)=O,177,228,120,–,–,–
C=C1C(=O)C2=C[C@H]1CCC(=O)[C@]1(C)[C@H](O)CCC(C)(C)[C@H]1C[C@H]2OC(=O)CCl,551,909,1090,–,–,–
C=C1C(=O)[C@@]23[C@H](O)C[C@@H]4C(C)(C)CC[C@@H](O)[C@@]4(C)[C@]2(O)CC[C@@H]1[C@H]3O,153,116,248,–,–,–
C=C1C(=O)C2=C[C@H]1CCC(=O)[C@]1(C)[C@H](O)CCC(C)(C)[C@H]1C[C@H]2OC(=O)CC,983,893,999,–,–,–
